In assay [1] the target is T1, gelatinase B (recombinant full-length enzyme) (Homo sapiens, UniProt P14780).
T1 construct: gelatinase B (recombinant full-length enzyme)
Description: Thiopeptolide substrate IC50 assay, gelatinase B. It is filed as biochemical. The procedure:
(§1) Experiments were carried out with both the full-length enzymes and the catalytic domains. […] IC50 values were determined using a thiopeptolide substrate, Ac-Pro-Leu-Gly-thioester-Leu-Leu-Gly-OEt (Ye Q.-Z., Johnson L.L., Hupe D.J., and Baragi V., "Purification and Characterization of the Human Stromelysin Catalytic Domain Expressed in Escherichia coli", Biochemistry, 1992;31:11231-11235). […] IC50 values for gelatinase B, and collagenase, were >100 µM.

The target in assay [2] is T2, GCD (recombinant gelatinase A catalytic domain) (Homo sapiens, UniProt P08253, DEL220-393).
T2 construct: The gelatinase A catalytic domain, GCD, was similarly constructed with the additional removal of the fibronectin-like insert which interrupts the catalytic domain; made in house
T2 sequence (P08253 with tags, fused parts or gaps DEL220-393): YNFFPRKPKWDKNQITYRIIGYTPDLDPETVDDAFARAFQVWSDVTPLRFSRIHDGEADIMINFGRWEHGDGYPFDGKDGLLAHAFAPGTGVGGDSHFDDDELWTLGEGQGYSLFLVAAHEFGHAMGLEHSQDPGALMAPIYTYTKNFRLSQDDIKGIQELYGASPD
Description: Thiopeptolide substrate IC50 assay, gelatinase A catalytic domain. It is filed as biochemical. The source says:
(§2) Matrix metalloproteinases share high sequence homology and the catalytic domains of each of the MMPs can be identified by sequence alignment. The gene for the catalytic domain of stromelysin-1, SCD, was constructed by removing the propeptide and C-terminal domain (Ye Q.-Z., Johnson L.L, Hupe D.J., and Baragi V., "Purification and Characterization of the Human Stromelysin Catalytic Domain Expressed in Escherichia coli", Biochemistry, 1992;31:11231-11235). The gelatinase A catalytic domain, GCD, was similarly constructed with the additional removal of the fibronectin-like insert which interrupts the catalytic domain (Ye Q.-Z., Johnson L.L, Yu A.E., and Hupe D., "Reconstructed 19 kDa Catalytic Domain of Gelatinase A is an Active Proteinase", Biochemistry, 1995;34:4702-4708). Both truncated proteins cleave synthetic peptide substrates and the natural substrates proteoglycan and gelatin in a manner similar to the full-length enzymes and can be used to identify matrix metalloproteinase inhibitors.
(§3) Experiments were carried out with both the full-length enzymes and the catalytic domains. […] IC50 values were determined using a thiopeptolide substrate, Ac-Pro-Leu-Gly-thioester-Leu-Leu-Gly-OEt (Ye Q.-Z., Johnson L.L., Hupe D.J., and Baragi V., "Purification and Characterization of the Human Stromelysin Catalytic Domain Expressed in Escherichia coli", Biochemistry, 1992;31:11231-11235). […]

Assay [3] deals with EAE. As to the kind of experiment: Experimental allergic encephalomyelitis (EAE), Lewis rat acute model. It is filed as in vivo. As to the method: Female Lewis rats were purchased from Harlan Sprague-Dawley (Indianapolis, IN) and were used at 8 to 10 weeks of age. Active EAE was induced by injection of 0.05 mL emulsion of myelin basic protein (MBP) with complete Freund's adjuvant (CFA), containing 25 µg guinea pig MBP and 100 µg Mycobacterium butyricum (Difco Laboratories, Detroit, MI) into one hind footpad. Immunized rats were observed daily for clinical signs of EAE and scored as follows: 0, no symptoms; 1, loss of tail tonicity; 2, paresis; 3, hind limb paralysis, often accompanied by incontinence; and 4, death. Formalin-fixed brain slice sections were stained with hematoxylin-eosin and evaluated microscopically for perivascular and parenchymal infiltration. Compound was administered by gavage as a solution in sterile saline in a volume of 500 µL. […] Several different protocols were used to define the efficacy and timing requirements for potency.
Protocol 1: Compound was administered daily at 50 mg/kg beginning on Day 0 and continuing through Day 14, with MBP in CFA administered on Day 0 also. […] N = 5 for all groups.
Controls run in parallel included CFA only and MBP in CFA. N = 4 for treatment groups. N = 8 for controls.

Assay [4] has as its system Mycobacterium footpad edema. As to the kind of experiment: Mycobacterium footpad edema assay (MFE). It is filed as in vivo, Wistar rats. The note with it: in Rattus norvegicus, po, paw swelling on third day. As to the method: The activity of Example 2 as a general inhibitor of inflammation was tested using the Mycobacterium footpad edema assay (MFE) in Wistar rats. Compound was administered daily by gavage at 2 mg/kg, 10 mg/kg, or 50 mg/kg.
Male outbred Wistar rats (110-125 g, Charles River Labs, Portage, MI) were used in this study. Rats were housed for a minimum of 1 week before use. Food and water were supplied ad libitum. Foot pad edema was induced following the method described by Martel R.R. and Klicius J., "Comparisons in rats of the antiinflammatory and gastric irritant effects of etodolac with several clinically effective antiinflammatory drugs", Agents and Actions, 1982;12:295. Briefly, male Wistar rats were injected subcutaneously into the right hind footpad with 0.1 mL of 5 mg/mL suspension of killed and dried Mycobacterium butyricum (Difco, Detroit, MI) in liquid paraffin. Compound was suspended in 0.5% hydroxypropylmethylcellulose (HPMC) containing 0.2% Tween-80 and administered orally 1 hour before injection. Subsequent doses of the compound were given 24 and 48 hours after the Mycobacterium. Control animals were given vehicle alone. Swelling was assessed on the third day by subtracting the initial volume (determined immediately following the Mycobacterium injection) from the final volume of the treated paw. Paw volume was determined by mercury plethysmography. The percent inhibition of edema achieved in each compound-treated group was determined by comparison with swelling in the vehicle-treated group and the ID50 values were determined by regression analysis. Statistical significance between experimental groups was evaluated using a Student's t-test. […]

Assay [5] deals with T3, stromelysin-1 (full-length native enzyme) (Homo sapiens, UniProt P08254).
T3 construct: stromelysin-1 (full-length native enzyme)
T3 sequence (P08254 100-477): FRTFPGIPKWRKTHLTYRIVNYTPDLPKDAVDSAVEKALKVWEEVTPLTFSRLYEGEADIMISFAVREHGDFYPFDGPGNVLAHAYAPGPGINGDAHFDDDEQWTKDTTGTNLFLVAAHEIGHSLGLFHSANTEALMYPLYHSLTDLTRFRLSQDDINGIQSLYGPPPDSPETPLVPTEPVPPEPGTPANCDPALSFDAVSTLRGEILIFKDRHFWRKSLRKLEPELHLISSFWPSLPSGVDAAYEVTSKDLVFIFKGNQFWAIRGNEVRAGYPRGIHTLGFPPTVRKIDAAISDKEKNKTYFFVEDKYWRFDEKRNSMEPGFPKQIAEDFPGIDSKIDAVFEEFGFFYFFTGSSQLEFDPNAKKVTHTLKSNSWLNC
Description: Thiopeptolide substrate IC50 assay, full-length stromelysin-1. It is filed as biochemical. As to the method:
as §1

The target of assay [6] is T4, SCD (stromelysin-1 catalytic domain) (Homo sapiens, UniProt P08254).
T4 construct: The gene for the catalytic domain of stromelysin-1, SCD, was constructed by removing the propeptide and C-terminal domain; made in house; host or cells: Escherichia coli
T4 sequence (P08254 100-272 limits assumed): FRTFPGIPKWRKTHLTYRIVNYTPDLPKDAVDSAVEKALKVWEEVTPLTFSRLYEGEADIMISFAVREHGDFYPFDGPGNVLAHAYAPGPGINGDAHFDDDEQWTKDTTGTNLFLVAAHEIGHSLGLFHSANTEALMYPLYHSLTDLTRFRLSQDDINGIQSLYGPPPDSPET
Description: Thiopeptolide substrate IC50 assay, stromelysin-1 catalytic domain. It is filed as biochemical.
Text: as §2, §3

Assay [7] addresses T5, gelatinase A (recombinant full-length enzyme) (Homo sapiens, UniProt P08253).
T5 construct: gelatinase A (recombinant full-length enzyme)
T5 sequence (P08253 110-660): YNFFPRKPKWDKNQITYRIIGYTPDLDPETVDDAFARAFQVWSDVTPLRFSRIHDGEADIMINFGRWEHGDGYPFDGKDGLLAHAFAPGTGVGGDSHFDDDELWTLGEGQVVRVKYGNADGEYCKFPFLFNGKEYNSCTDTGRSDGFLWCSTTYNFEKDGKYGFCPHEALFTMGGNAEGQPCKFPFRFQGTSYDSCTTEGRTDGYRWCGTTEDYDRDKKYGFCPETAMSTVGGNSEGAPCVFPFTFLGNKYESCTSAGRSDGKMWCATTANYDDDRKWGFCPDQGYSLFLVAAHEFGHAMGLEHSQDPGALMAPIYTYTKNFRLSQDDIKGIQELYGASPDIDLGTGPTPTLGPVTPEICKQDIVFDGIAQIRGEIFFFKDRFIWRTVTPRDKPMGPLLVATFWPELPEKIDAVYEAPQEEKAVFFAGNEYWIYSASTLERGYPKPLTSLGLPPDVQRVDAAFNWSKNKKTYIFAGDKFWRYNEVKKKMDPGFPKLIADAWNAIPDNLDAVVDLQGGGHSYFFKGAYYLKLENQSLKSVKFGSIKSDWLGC
As to the kind of experiment: Thiopeptolide substrate IC50 assay, full-length gelatinase A. It is filed as biochemical. The procedure: as §1

Where [8] appears, read: Protocol 1: CFA + MBP, 50 mg/kg daily oral Day 0 through Day 14.
[9] abbreviates: Protocol 2: CFA + MBP, 10 mg/kg alternate days.
The mark [10] stands for this setting: Protocol 2: CFA + MBP, 50 mg/kg alternate days.

In general, IC50 refers to the concentration at which inhibition is half-maximal. As a reminder, the inhibition is the drop in the measured response relative to a control, in per cent. A lower inhibition goes with little suppression.

T1 sequence (P14780 94-707): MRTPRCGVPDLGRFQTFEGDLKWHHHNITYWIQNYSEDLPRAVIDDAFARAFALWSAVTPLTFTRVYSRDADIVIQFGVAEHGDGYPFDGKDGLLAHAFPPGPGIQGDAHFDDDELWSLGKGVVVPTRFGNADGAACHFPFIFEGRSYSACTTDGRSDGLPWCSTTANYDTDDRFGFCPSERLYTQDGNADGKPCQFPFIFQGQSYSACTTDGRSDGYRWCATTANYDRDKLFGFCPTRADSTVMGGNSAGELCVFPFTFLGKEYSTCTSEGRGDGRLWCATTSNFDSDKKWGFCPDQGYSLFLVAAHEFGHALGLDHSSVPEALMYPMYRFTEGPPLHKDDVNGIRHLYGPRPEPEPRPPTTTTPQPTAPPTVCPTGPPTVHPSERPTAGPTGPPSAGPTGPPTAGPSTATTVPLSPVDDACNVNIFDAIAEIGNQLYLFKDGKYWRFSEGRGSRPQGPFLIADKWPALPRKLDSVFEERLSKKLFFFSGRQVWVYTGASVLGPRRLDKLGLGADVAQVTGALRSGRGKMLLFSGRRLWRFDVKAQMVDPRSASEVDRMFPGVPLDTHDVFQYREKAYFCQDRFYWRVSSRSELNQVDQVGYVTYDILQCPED

On to `O=C(O)CCC(=NO)c1ccc2oc3ccccc3c2c1` [Example 2, 4-Dibenzofuran-2-yl-4-hydroximino-butyric acid], for which the IC50 in assay [1] is more than 100 µM; in assay [2], 0.04 µM; in assay [5], 7.64 µM; in assay [6], 7.12 µM; in assay [7], 1.31 µM. The “treated animals showing reduction of symptoms” value in assay [3] (Protocol 1, 50 mg/kg daily) stood at 20%. In assay [3] (Protocol 1, 50 mg/kg daily), the “treated animals showing total inhibition of symptoms” value was found to be 80%. Moreover, the “leukocyte migration across the blood-brain barrier” value in assay [3] (Protocol 1, 50 mg/kg daily, histology of brain slices) was “completely prevented”. Also, the “percentage of animals responding” value in assay [3] (Protocol 1, 50 mg/kg daily, total inhibition or reduction of symptoms) was determined as 100%. In addition, the results for the “Day of Peak Expression” value in assay [3] (setting [8]), in assay [3] (setting [9]) and in assay [3] (setting [10]) were 12, 14 and 15, respectively. For the same compound, the “Effect on EAE Rats (≥Paresis/ Total)” value in assay [3] (setting [8]) was 1/5; in assay [3] (Protocol 1: CFA only (no MBP), 50 mg/kg daily oral) it was 0/5; in assay [3] (setting [9]), 0/4; in assay [3] (setting [10]), 0/4. For the same compound, the “Clinical Grade at Peak of Disease” value is listed as 1.0 in assay [3] (Protocol 1: CFA + MBP, 50 mg/kg daily oral Day 0 through Day 14, score 0-4, N = 5); 0 in assay [3] (Protocol 1: CFA only (no MBP), 50 mg/kg daily oral, N = 5); 0.6 in assay [3] (Protocol 2: CFA + MBP, 10 mg/kg on Day 0 and alternate days through Day 14, N = 4); 0.8 in assay [3] (Protocol 2: CFA + MBP, 50 mg/kg on Day 0 and alternate days through Day 14, N = 4). Besides, 2 mg/kg produced 23% inhibition in assay [4] (2 mg/kg daily by gavage). The compound further registered an inhibition at 10 mg/kg in assay [4] (10 mg/kg daily by gavage) of 27%. This compound also came in with an inhibition at 50 mg/kg in assay [4] (50 mg/kg daily by gavage) of 40%.

The values are drawn from patent EP0828726B1, “TRICYCLIC INHIBITORS OF MATRIX METALLOPROTEINASES” (WARNER-LAMBERT COMPANY, priority 1995, dated 1996).
